Laboratory results reported in ChEMBL document CHEMBL4433259, “Rifamycin derivatives active against pathogenic rapidly-growing mycobacteria” (Bioorg Med Chem Lett, 2019).
Active and inactive are the calls of the source. The rule behind the calls is not given here.

Experiments:
[1] = tested on: Mycobacteroides chelonae; assay: Antimycobacterial activity against Mycobacterium chelonae assessed as reduction in microbial growth by CLSI method; format: functional
[2] = tested on: Mycolicibacterium smegmatis; assay: Antimycobacterial activity against Mycobacterium smegmatis assessed as reduction in microbial growth by CLSI method; format: functional
[3] = tested on: Mycolicibacterium fortuitum; assay: Antimycobacterial activity against Mycobacterium fortuitum assessed as reduction in microbial growth by CLSI method; format: functional
[4] = Antimycobacterial activity against Mycobacterium abscessus subsp. massiliense assessed as reduction in microbial growth by CLSI method; format: functional; settings: Mycobacteroides abscessus
[5] = Antimycobacterial activity against Mycobacterium abscessus subsp. bolletii assessed as reduction in microbial growth by CLSI method; format: functional; settings: Mycobacteroides abscessus
[6] = Antimycobacterial activity against Mycobacterium abscessus subsp. abscessus assessed as reduction in microbial growth by CLSI method; format: functional; settings: Mycobacteroides abscessus
[7] = tested on: Mycobacteroides abscessus; assay: Antimycobacterial activity against Mycobacterium abscessus FM0058 clinical isolate assessed as inhibition zone diameter at 50 ng after 3 days by disc diffusion method; format: functional
[8] = tested on: Mycobacteroides abscessus; assay: Antimycobacterial activity against Mycobacterium abscessus ATCC 19977 assessed as inhibition zone diameter at 200 ng after 3 days by disc diffusion method; format: functional
[9] = tested on: Mycobacteroides abscessus; assay: Antimycobacterial activity against Mycobacterium abscessus ATCC 19977 assessed as inhibition zone diameter at 25 ng after 3 days by disc diffusion method; format: functional
[10] = tested on: Mycobacteroides abscessus; assay: Antimycobacterial activity against Mycobacterium abscessus ATCC 19977 assessed as inhibition zone diameter at <3 ng after 3 days by disc diffusion method; format: functional, organism-based
[11] = tested on: Mycobacteroides abscessus; assay: Antimycobacterial activity against Mycobacterium abscessus FM0058 clinical isolate assessed as inhibition zone diameter at 800 ng after 3 days by disc diffusion method; format: functional
[12] = tested on: Mycobacteroides abscessus; assay: Antimycobacterial activity against Mycobacterium abscessus ATCC 19977 assessed as inhibition zone diameter at 400 ng after 3 days by disc diffusion method; format: functional
[13] = tested on: Mycobacteroides abscessus; assay: Antimycobacterial activity against Mycobacterium abscessus FM0058 clinical isolate assessed as inhibition zone diameter at 12.5 ng after 3 days by disc diffusion method; format: functional
[14] = tested on: Mycobacteroides abscessus; assay: Antimycobacterial activity against Mycobacterium abscessus FM0058 clinical isolate assessed as inhibition zone diameter at 25 ng after 3 days by disc diffusion method; format: functional
[15] = tested on: Mycobacteroides abscessus; assay: Antimycobacterial activity against Mycobacterium abscessus ATCC 19977 assessed as inhibition zone diameter at 100 ng after 3 days by disc diffusion method; format: functional
[16] = tested on: Mycobacteroides abscessus; assay: Antimycobacterial activity against Mycobacterium abscessus FM0058 clinical isolate assessed as inhibition zone diameter at 400 ng after 3 days by disc diffusion method; format: functional
[17] = tested on: Mycobacteroides abscessus; assay: Antimycobacterial activity against Mycobacterium abscessus ATCC 19977 assessed as inhibition zone diameter at 12.5 ng after 3 days by disc diffusion method; format: functional
[18] = tested on: Mycobacteroides abscessus; assay: Antimycobacterial activity against Mycobacterium abscessus ATCC 19977 assessed as inhibition zone diameter at 1.56 ng after 3 days by disc diffusion method; format: functional
[19] = tested on: Mycobacteroides abscessus; assay: Antimycobacterial activity against Mycobacterium abscessus ATCC 19977 assessed as inhibition zone diameter at 800 ng after 3 days by disc diffusion method; format: functional
[20] = tested on: Mycobacteroides abscessus; assay: Antimycobacterial activity against Mycobacterium abscessus FM0058 clinical isolate assessed as inhibition zone diameter at 3.125 ng after 3 days by disc diffusion method; format: functional
[21] = tested on: Mycobacteroides abscessus; assay: Antimycobacterial activity against Mycobacterium abscessus ATCC 19977 assessed as inhibition zone diameter at 6.25 ng after 3 days by disc diffusion method; format: functional
[22] = Drug metabolism in Mycobacterium abscessus ATCC 19977 assessed as adenine ribosylated diphosphate derivative formation by LC/MS analysis; format: ADME; settings: Mycobacteroides abscessus
[23] = tested on: Mycobacteroides abscessus; assay: Antimycobacterial activity against Mycobacterium abscessus ATCC 19977 assessed as inhibition zone diameter at 3.125 ng after 3 days by disc diffusion method; format: functional
[24] = tested on: Mycobacteroides abscessus; assay: Antimycobacterial activity against Mycobacterium abscessus FM0058 clinical isolate assessed as inhibition zone diameter at 200 ng after 3 days by disc diffusion method; format: functional
[25] = tested on: Mycobacteroides abscessus; assay: Antimycobacterial activity against Mycobacterium abscessus FM0058 clinical isolate assessed as inhibition zone diameter at 6.25 ng after 3 days by disc diffusion method; format: functional
[26] = tested on: Mycobacteroides abscessus; assay: Antimycobacterial activity against Mycobacterium abscessus FM0058 clinical isolate assessed as inhibition zone diameter at <3 ng after 3 days by disc diffusion method; format: functional, organism-based
[27] = tested on: Mycobacteroides abscessus; assay: Antimycobacterial activity against Mycobacterium abscessus ATCC 19977 assessed as inhibition zone diameter at 50 ng after 3 days by disc diffusion method; format: functional
[28] = tested on: Mycobacteroides abscessus; assay: Antimycobacterial activity against Mycobacterium abscessus FM0058 clinical isolate assessed as inhibition zone diameter at 100 ng after 3 days by disc diffusion method; format: functional
[29] = tested on: Mycobacteroides abscessus; assay: Antimycobacterial activity against Mycobacterium abscessus FM0058 clinical isolate assessed as inhibition zone diameter at 1.56 ng after 3 days by disc diffusion method; format: functional
[30] = Drug metabolism in Mycobacterium abscessus ATCC 19977 assessed as C23 ribosylated derivative formation by LC/MS analysis relative to control; format: ADME; settings: Mycobacteroides abscessus

Row | SMILES | MIC [1] | MIC [2] | MIC [3] | MIC [4] | MIC [5] | MIC [6] | diameter of the inhibition zone (DIZ) [7] | diameter of the inhibition zone (DIZ) [8] | diameter of the inhibition zone (DIZ) [9] | diameter of the inhibition zone (DIZ) [10] | diameter of the inhibition zone (DIZ) [11] | diameter of the inhibition zone (DIZ) [12] | diameter of the inhibition zone (DIZ) [13] | diameter of the inhibition zone (DIZ) [14] | diameter of the inhibition zone (DIZ) [15] | diameter of the inhibition zone (DIZ) [16] | diameter of the inhibition zone (DIZ) [17] | diameter of the inhibition zone (DIZ) [18] | diameter of the inhibition zone (DIZ) [19] | diameter of the inhibition zone (DIZ) [20] | also measured
1 | COc1ccc(CNC(=O)O[C@H]2[C@H](C)[C@H](O)[C@H](C)[C@@H](O)[C@@H](C)/C=C/C=C(/C)C(=O)NC3=C(N4CCOCC4)C(=O)c4c(c(O)c(C)c5c4C(=O)[C@@](C)(O/C=C/[C@H](OC)[C@H]2C)O5)C3=O)cc1 | > 64 µg/mL | 0.06 µg/mL | 1 µg/mL | 8 µg/mL | 16 µg/mL | 64 µg/mL |  |  |  |  |  |  |  |  |  |  |  |  |  |  | 
2 | CO[C@H]1/C=C/O[C@@]2(C)Oc3c(C)c(O)c4c(O)c(c(/C=N/N5CCN(C)CC5)c(O)c4c3C2=O)NC(=O)/C(C)=C\C=C\[C@H](C)[C@H](O)[C@@H](C)[C@@H](O)[C@@H](C)[C@H](OC(C)=O)[C@@H]1C [RIFAMPIN] | > 64 µg/mL | 32 µg/mL | > 64 µg/mL | > 64 µg/mL | > 64 µg/mL | > 64 µg/mL | 0 mm | 0 mm | 0 mm | inactive | 0 mm | 0 mm | 0 mm | 0 mm | 0 mm | 0 mm | 0 mm | 0 mm | 0 mm | 0 mm | diameter of the inhibition zone (DIZ) [21]: 0 mm; Drug metabolism [22]: Metabolite_Notdetected; diameter of the inhibition zone (DIZ) [23]: 0 mm; diameter of the inhibition zone (DIZ) [24]: 0 mm; diameter of the inhibition zone (DIZ) [25]: 0 mm; diameter of the inhibition zone (DIZ) [26]: inactive; diameter of the inhibition zone (DIZ) [27]: 0 mm; diameter of the inhibition zone (DIZ) [28]: 0 mm; diameter of the inhibition zone (DIZ) [29]: 0 mm
3 | CO[C@H]1/C=C/O[C@@]2(C)Oc3c(C)c(O)c4c(c3C2=O)C(=O)C(N2CCOCC2)=C(NC(=O)/C(C)=C\C=C\[C@H](C)[C@H](O)[C@@H](C)[C@@H](O)[C@@H](C)[C@H](OC(=O)NCc2cc(-c3ccccc3)no2)[C@@H]1C)C4=O | 0.5 µg/mL |  | 0.0625 µg/mL | 0.5 µg/mL | 0.125 µg/mL | 0.5 µg/mL | 13 mm | 16 mm | 0 mm | inactive | >30 mm | 20 mm | 0 mm | 7 mm | 12 mm | 26 mm | 0 mm | 0 mm | 24 mm | 0 mm | diameter of the inhibition zone (DIZ) [21]: 0 mm; diameter of the inhibition zone (DIZ) [23]: 0 mm; diameter of the inhibition zone (DIZ) [24]: 21 mm; diameter of the inhibition zone (DIZ) [25]: 0 mm; diameter of the inhibition zone (DIZ) [26]: inactive; diameter of the inhibition zone (DIZ) [27]: 7 mm; diameter of the inhibition zone (DIZ) [28]: 17 mm; diameter of the inhibition zone (DIZ) [29]: 0 mm
4 | CO[C@H]1/C=C/O[C@@]2(C)Oc3c(C)c(O)c4c(c3C2=O)C(=O)C(N2CCOCC2)=C(NC(=O)/C(C)=C\C=C\[C@H](C)[C@H](O)[C@@H](C)[C@@H](O)[C@@H](C)[C@H](OC(=O)NCc2cc(-c3ccccn3)no2)[C@@H]1C)C4=O | 64 µg/mL | 0.5 µg/mL | 1 µg/mL | 8 µg/mL | 8 µg/mL | 8 µg/mL | 9 mm | 20 mm | 0 mm | inactive | >30 mm | 24 mm | 0 mm | 0 mm | 16 mm | 30 mm | 0 mm | 0 mm | 27 mm | 0 mm | diameter of the inhibition zone (DIZ) [21]: 0 mm; diameter of the inhibition zone (DIZ) [23]: 0 mm; diameter of the inhibition zone (DIZ) [24]: 25 mm; diameter of the inhibition zone (DIZ) [25]: 0 mm; diameter of the inhibition zone (DIZ) [26]: inactive; diameter of the inhibition zone (DIZ) [27]: 14 mm; diameter of the inhibition zone (DIZ) [28]: 20 mm; diameter of the inhibition zone (DIZ) [29]: 0 mm
5 | CO[C@H]1/C=C/O[C@@]2(C)Oc3c(C)c(O)c4c(c3C2=O)C(=O)C(N2CCOCC2)=C(NC(=O)/C(C)=C\C=C\[C@H](C)[C@H](O)[C@@H](C)[C@@H](O)[C@@H](C)[C@H](OC(=O)NCc2ccc(N(C)C)cc2)[C@@H]1C)C4=O | 16 µg/mL | 0.06 µg/mL | 1 µg/mL | 8 µg/mL | 8 µg/mL | 8 µg/mL |  |  |  |  |  |  |  |  |  |  |  |  |  |  | 
6 | CO[C@H]1/C=C/O[C@@]2(C)Oc3c(C)c(O)c4c(c3C2=O)C(=O)C(N2CCOCC2)=C(NC(=O)/C(C)=C\C=C\[C@H](C)[C@H](O)[C@@H](C)[C@@H](O)[C@@H](C)[C@H](OC(=O)NC2CCN(Cc3ccccc3)CC2)[C@@H]1C)C4=O | < 0.03 µg/mL | 0.12 µg/mL | < 0.03 µg/mL | 0.25 µg/mL | 0.0625 µg/mL | < 0.03 µg/mL | 22 mm | >30 mm | 16 mm | inactive | >30 mm | >30 mm | 16 mm | 20 mm | 24 mm | >30 mm | 13 mm | 0 mm | >30 mm | 0 mm | diameter of the inhibition zone (DIZ) [21]: 0 mm; Drug metabolism [22]: Metabolite_Notdetected; diameter of the inhibition zone (DIZ) [23]: 0 mm; diameter of the inhibition zone (DIZ) [24]: 29 mm; diameter of the inhibition zone (DIZ) [25]: 11 mm; diameter of the inhibition zone (DIZ) [26]: inactive; Drug metabolism [30]: Metabolite_Notdetected; diameter of the inhibition zone (DIZ) [27]: 21 mm; diameter of the inhibition zone (DIZ) [28]: 24 mm; diameter of the inhibition zone (DIZ) [29]: 0 mm
7 | CO[C@H]1/C=C/O[C@@]2(C)Oc3c(C)c(O)c4c(c3C2=O)C(=O)C(N2CCOCC2)=C(NC(=O)/C(C)=C\C=C\[C@H](C)[C@H](O)[C@@H](C)[C@@H](O)[C@@H](C)[C@H](OC(=O)NCCN(C(C)C)C(C)C)[C@@H]1C)C4=O | 1 µg/mL |  | 8 µg/mL | 1 µg/mL | 0.25 µg/mL | 0.5 µg/mL |  |  |  |  |  |  |  |  |  |  |  |  |  |  | 
8 | COc1ccccc1-c1cc(CNC(=O)O[C@H]2[C@H](C)[C@H](O)[C@H](C)[C@@H](O)[C@@H](C)/C=C/C=C(/C)C(=O)NC3=C(N4CCOCC4)C(=O)c4c(c(O)c(C)c5c4C(=O)[C@@](C)(O/C=C/[C@H](OC)[C@H]2C)O5)C3=O)on1 | 64 µg/mL | 0.12 µg/mL | 0.25 µg/mL | 64 µg/mL | 16 µg/mL | 64 µg/mL |  |  |  |  |  |  |  |  |  |  |  |  |  |  | 
